From patent US12662451B2, “Chemical compounds and uses thereof” (GLAXOSMITHKLINE INTELLECTUAL PROPERTY (NO.4) LIMITED, priority 2023, dated 2026)
Counter-ions that a name gives are not always drawn. Like-named read-outs stand apart in the source and are kept apart here.

Legend:
[1] = test system: SW48 human colorectal cancer cells; experiment: Calculated free drug potency in SW48 cell assay, corrected with media free fraction (Example C); format: cell-based; conditions: Homo sapiens, SW48, SW48 pCC50 corrected with measured free fraction in cell assay media
Experimental: (§1) It was observed that the compounds of the present disclosure are bound to cell assay media to various degrees, which would affect the cellular potency analysis in Example B. To measure free drug potency, concentrations used in the cell assays were corrected with the measured free fraction determined in the cell assay media. Compounds were incubated in a rapid equilibrium dialysis (RED) at a nominal concentration of 1 μM, using a dialysis buffer of phosphate-buffered saline (PBS, 100 mM sodium phosphate+150 mM sodium chloride, pH 7.4). The test compound was spiked into the medium. Aliquots were added to the donor wells of a RED plate in triplicate, and blank PBS was added to each receiver well, at volumes recommended by the manufacturer. Plates were incubated with shaking at 200 rpm for 4 hours at 37° C. The resultant samples were analysed by LC-MS/MS using a specific and sensitive method. Results were reported as analyte:internal standard peak area ratios (PARs), and the percent unbound was calculated with the following equation:
(§2) [formula] where Cfinal=PAR in the T=240 minute sample; Cinitial=PAR in the T=0 minute sample. Cell culture media unbound percentage and calculated free drug potency of selected compounds along with their measured potency from Example B are shown in Table 3.

[2] = target: T1, recombinant full-length WRN protein (1-1432) (Homo sapiens, UniProt Q14191); experiment: WRN unwinding activity, fluorogenic 384-well assay (Example A); format: biochemical; conditions: WRN unwinding activity, 4 hr; Table 2; read-out: 4 hr UNW pIC50 (converted)
T1 construct: recombinant full-length WRN protein (1-1432)
Outline: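 200 pM enzyme (2× stock) preincubated with compound 4 h at ambient temperature, then 200 μM ATP and 12 nM quenched TAMRA-labelled dsDNA (2× stocks) added for 60 min; EDTA-quenched. Buffer 25 mM Tris pH 8.0, 5 mM NaCl, 2 mM MgCl2. Fluorescence at 525/598 nm; pIC50 from four-parameter fit.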

[3] = Cell culture media unbound percentage and stability by rapid equilibrium dialysis (Example C); format: in vitro ADME; conditions: bovine, cell assay medium (RPMI-1640 with 10% fetal bovine serum), pH 7.4, rapid equilibrium dialysis, 4 hours at 37° C., read-out: Cell Culture Media Binding (% unbound)
Experimental: as §1
[formula] where D=the matrix dilution factor (D=1 for media); Apparent Fu=Crec/Cdon; Crec=PAR in receiver samples; Cdon=PAR in donor samples. Percent stability was calculated by:
as §2

[4] = test system: SW48 human colorectal cancer cells (MSI-H cancer cells); experiment: SW48 cell viability, CellTiter-Glo, 120 hours (Example B); conditions: Homo sapiens
[5] = SW48, 120 h, read-out: SW48 pCC50, SW48 cell viability, 120 hours incubation (converted), Table 2
[6] = SW48, read-out: SW48 pCC50, measured potency from Example B, as repeated in Table 3 (converted)

T1 sequence (Q14191 whole entry): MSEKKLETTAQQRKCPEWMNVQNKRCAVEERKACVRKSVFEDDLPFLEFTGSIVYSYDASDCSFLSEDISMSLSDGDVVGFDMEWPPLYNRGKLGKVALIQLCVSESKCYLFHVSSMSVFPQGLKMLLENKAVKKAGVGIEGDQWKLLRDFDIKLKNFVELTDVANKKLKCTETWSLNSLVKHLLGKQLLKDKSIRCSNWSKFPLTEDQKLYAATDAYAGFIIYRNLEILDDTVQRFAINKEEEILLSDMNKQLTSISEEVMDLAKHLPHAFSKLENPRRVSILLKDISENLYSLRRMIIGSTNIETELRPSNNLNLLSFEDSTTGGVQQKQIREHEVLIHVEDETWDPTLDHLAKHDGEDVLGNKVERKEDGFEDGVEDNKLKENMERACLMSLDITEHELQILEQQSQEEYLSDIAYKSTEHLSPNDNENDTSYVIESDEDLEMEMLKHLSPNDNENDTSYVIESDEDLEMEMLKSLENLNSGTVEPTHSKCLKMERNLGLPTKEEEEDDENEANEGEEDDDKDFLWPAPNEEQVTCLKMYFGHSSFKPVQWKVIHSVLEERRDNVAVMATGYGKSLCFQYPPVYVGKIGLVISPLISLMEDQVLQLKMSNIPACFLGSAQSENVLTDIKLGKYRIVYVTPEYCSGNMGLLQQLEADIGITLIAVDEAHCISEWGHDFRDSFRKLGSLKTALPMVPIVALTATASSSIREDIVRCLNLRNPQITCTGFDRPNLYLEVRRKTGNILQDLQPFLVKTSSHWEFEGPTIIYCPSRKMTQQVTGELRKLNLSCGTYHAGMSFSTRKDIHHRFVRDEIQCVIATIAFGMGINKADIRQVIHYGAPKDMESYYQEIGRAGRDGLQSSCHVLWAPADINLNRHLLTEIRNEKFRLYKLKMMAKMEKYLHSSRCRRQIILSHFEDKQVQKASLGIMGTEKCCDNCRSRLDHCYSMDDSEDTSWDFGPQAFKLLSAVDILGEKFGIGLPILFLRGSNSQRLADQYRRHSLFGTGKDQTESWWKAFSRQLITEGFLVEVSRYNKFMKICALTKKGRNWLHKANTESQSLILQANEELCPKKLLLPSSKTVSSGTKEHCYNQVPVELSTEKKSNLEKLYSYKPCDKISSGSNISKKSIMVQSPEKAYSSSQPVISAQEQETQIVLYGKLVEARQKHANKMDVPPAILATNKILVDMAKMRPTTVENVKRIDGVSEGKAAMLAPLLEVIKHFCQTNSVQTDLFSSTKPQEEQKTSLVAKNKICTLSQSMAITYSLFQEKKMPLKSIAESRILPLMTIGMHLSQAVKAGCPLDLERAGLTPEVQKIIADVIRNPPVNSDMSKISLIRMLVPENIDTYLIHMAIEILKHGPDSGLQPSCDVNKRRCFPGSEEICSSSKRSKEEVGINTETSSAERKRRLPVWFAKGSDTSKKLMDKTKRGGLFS

Row | SMILES | CC50 [1] [nM] | IC50 [2] [nM] | fraction unbound at 4 h, 1 µM [3] | CC50 [4, 5] [nM] | CC50 [4, 6] [nM]
1 | Cc1nc2cc(S(=O)(=O)N(C)c3ccc([C@H]4CCC[C@@H](C(=O)Nc5ccc(C(F)F)cc5F)[C@@H]4C(=O)O)cc3)ccc2n1C [Example 179, (1R,2R,6S)-2-((4-(difluoromethyl)-2-fluorophenyl)carbamoyl)-6-(4-((N,1,2-trimethyl-1H-benzo[d]imidazole)-5-sulfonamido)phenyl)cyclohexane-1-carboxylic acid] | 145 | 2.51 | 0.146 | 1000 | 1000
2 | CCO[C@@H]1C[C@H](c2ccc(N(C)S(=O)(=O)c3ccc4[nH]c(C)nc4c3)cc2)[C@@H](C(=O)O)[C@H](C(=O)Nc2ccc(C(F)(F)F)cc2F)C1 [Example 281, (1R,2S,4R,6R)-2-(4-((N,2-dimethyl-1H-benzo[d]imidazole)-5-sulfonamido)phenyl)-4-ethoxy-6-((2-fluoro-4-(trifluoromethyl)phenyl)carbamoyl)cyclohexane-1-carboxylic acid] | 117 | 1.58 | 0.148 | 794 | 794
3 | CN(c1ccc([C@H]2CCC[C@@H](C(=O)Nc3ccc(C(F)(F)F)cc3F)[C@@H]2C(=O)O)cc1)S(=O)(=O)c1cccc(C2CC2(F)F)c1 (stereo partly drawn) [Example 120, (1R,2S,6R)-2-(4-((3-(2,2-difluorocyclopropyl)-N-methylphenyl)sulfonamido)phenyl)-6-((2-fluoro-4-(trifluoromethyl)phenyl)carbamoyl)cyclohexane-1-carboxylic acid] | 33.9 | 10 | 0.0107 | 3160 | 3160
4 | COc1cccc(S(=O)(=O)N(C)c2ccc([C@H]3CCC[C@@H](C(=O)Nc4ccc(C(F)(F)F)cc4F)[C@@H]3C(=O)O)cc2)c1 (racemic) [Example 82] | 74.1 | 5.01 | 0.0147 | 5010 | 5010
5 | CCO[C@@H]1C[C@H](c2ccc(N(C)S(=O)(=O)c3ccc4c(c3)nc(Cl)n4C)cc2)[C@@H](C(=O)O)[C@H](C(=O)Nc2ccc(C(F)(F)F)cc2F)C1 (relative stereo) [Example 361, rel-(1R,2S,4R,6R)-2-(4-((2-chloro-N,1-dimethyl-1H-benzo[d]imidazole)-5-sulfonamido)phenyl)-4-ethoxy-6-((2-fluoro-4-(trifluoromethyl)phenyl)carbamoyl)cyclohexane-1-carboxylic acid] | 31.6 | 1.58 | 0.0632 | 501 | 501
6 | CN(C)c1nc2cc(S(=O)(=O)N(C)c3ccc([C@H]4CCC[C@@H](C(=O)Nc5ccc(C(F)(F)F)cc5F)[C@@H]4C(=O)O)cc3)ccc2n1C [Example 121, (1R,2S,6R)-2-(4-((2-(dimethylamino)-N, 1-dimethyl-1H-benzo[d]imidazole)-5-sulfonamido)phenyl)-6-((2-fluoro-4-(trifluoromethyl)phenyl)carbamoyl)cyclohexane-1-carboxylic acid] | 6.17 | 3.16 | 0.0195 | 316 | 316
7 | CN(c1ccc([C@H]2CCC[C@@H](C(=O)Nc3ccc(C(F)(F)F)cc3F)[C@@H]2C(=O)O)cc1)S(=O)(=O)c1cccc(C(=O)N2CCOCC2)c1 [Example 119, (1R,2R,6S)-2-((2-fluoro-4-(trifluoromethyl)phenyl)carbamoyl)-6-(4-((N-methyl-3-(morpholine-4-carbonyl)phenyl)sulfonamido)phenyl)cyclohexane-1-carboxylic acid] | 229 | 1.58 | 0.231 | 1000 | 1000
8 | Cc1nc2cc(S(=O)(=O)N(C)c3ccc([C@@H]4CCC[C@H](COc5ccc(C(F)(F)F)cc5)[C@H]4C(=O)O)cc3)cc([C@H]3CCCN(C)C3)c2n1C (single isomer, unassigned) [Example 212] | 40.7 | 1.58 | 0.0205 | 2000 | 2000
9 | CC(C)c1nc2cc(S(=O)(=O)N(C)c3ccc([C@H]4CCC[C@@H](C(=O)Nc5ccc(C(F)(F)F)cc5F)[C@@H]4C(=O)O)cc3)ccc2n1C [Example 132, (1R,2R,6S)-2-((2-fluoro-4-(trifluoromethyl)phenyl)carbamoyl)-6-(4-((2-isopropyl-N, 1-dimethyl-1H-benzo[d]imidazole)-5-sulfonamido)phenyl)cyclohexane-1-carboxylic acid] | 21.9 | 12.6 | 0.0349 | 631 | 631
10 | CN(c1ccc([C@H]2CCC[C@@H](C(=O)Nc3ccc(C(F)(F)F)cc3F)[C@@H]2C(=O)O)cc1)S(=O)(=O)c1cccc([C@@H]2CCCNC2)c1 [Example 262, (1R,2R,6S)-2-((2-fluoro-4-(trifluoromethyl)phenyl)carbamoyl)-6-(4-((N-methyl-3-((S)-piperidin-3-yl)phenyl)sulfonamido)phenyl)cyclohexane-1-carboxylic acid] | 240 | 1.58 | 0.241 | 1000 | 1000
11 | Cc1nc2cc(S(=O)(=O)N(C)c3ccc([C@@H]4C[C@H](N5CC[C@H](F)C5)C[C@H](C(=O)Nc5ccc(C(F)(F)F)cc5F)[C@H]4C(=O)O)cc3)ccc2n1C (stereo in doubt) [Example 378, rel-(1R*,2R*,4R*,6S*)-2-((2-fluoro-4-(trifluoromethyl)phenyl)carbamoyl)-4-((S)-3-fluoropyrrolidin-1-yl)-6-(4-((N,1,2-trimethyl-1H-benzo[d]imidazole)-5-sulfonamido)phenyl)cyclohexane-1-carboxylic acid] | 832 | 50.1 | 0.208 | 3980 | 3980
12 | Cc1nc2cc(S(=O)(=O)N(C)c3ccc([C@@H]4CCC[C@H](COc5ccc(C(F)(F)F)cc5)[C@H]4C(=O)O)cc3)cc([C@@H]3CCCNC3)c2n1C (relative stereo) [Example 207, rel-(1R,2R,6S)-2-((4-(trifluoromethyl)phenoxy)methyl)-6-(4-((N,1,2-trimethyl-7-((R)-piperidin-3-yl)-1H-benzo[d]imidazole)-5-sulfonamido)phenyl)cyclohexane-1-carboxylic acid, hydrochloride] | 110 | 1.58 | 0.0138 | 7940 | 7940
13 | O=C(O)[C@@H]1[C@@H](c2ccc(-c3cnsc3)cc2)CCC[C@H]1C(=O)Nc1ccc(C(F)(F)F)cc1F [Example 16, (1R,2R,6S)-2-((2-fluoro-4-(trifluoromethyl)phenyl)carbamoyl)-6-(4-(isothiazol-4-yl)phenyl)cyclohexane-1-carboxylic acid] | 200 | 3.98 | 0.0499 | 3980 | 3980
14 | Cc1nc2cc(S(=O)(=O)N(C)c3ccc([C@H]4C[C@@H](OCC5CCOCC5)C[C@@H](C(=O)Nc5ccc(C(F)(F)F)cc5F)[C@@H]4C(=O)O)cc3)ccc2n1C (stereo in doubt) [Example 355, rel-(1R,2R,4R,6S)-2-((2-fluoro-4-(trifluoromethyl)phenyl)carbamoyl)-4-((tetrahydro-2H-pyran-4-yl)methoxy)-6-(4-((N,1,2-trimethyl-1H-benzo[d]imidazole)-5-sulfonamido)phenyl)cyclohexane-1-carboxylic acid] | 12.9 | 3.98 | 0.128 | 100 | 100
15 | Cc1nc2cc(S(=O)(=O)N(C)c3ccc([C@H]4CCC[C@@H](C(=O)N[C@H]5CC[C@H](C(C)C)CC5)[C@@H]4C(=O)O)cc3)ccc2n1C [Example 180, (1R,2R,6S)-2-(((1r,4R)-4-isopropylcyclohexyl)carbamoyl)-6-(4-((N,1,2-trimethyl-1H-benzo[d]imidazole)-5-sulfonamido)phenyl)cyclohexane-1-carboxylic acid] | 22.4 | 3.98 | 0.0357 | 631 | 631
